PMC12006758 (Frontiers in Chemistry, 2025)
≈ marks a conversion by molar mass, not a printed value. Where two headings read alike, the source gives them in different places.

Legend:
[1] = biological target: CA IX; conditions: benzofuran-based SLC-0111 analog; ref Shaldam et al., 2021; cited from earlier work
[2] = system: MCF7 cancer cell line; assay: MTT cell viability assay, MCF7; type: cell-based; conditions: Homo sapiens
Experimental: (§1) All cell lines were obtained from the Vacsera Cell Culture Library, Tissue Culture Unit, Cairo, Egypt, with ATCC certification. For further details, See Supplementary Appendix A in the supplementary data.
(§2) All cell lines were obtained from the Vacsera Cell Culture Library, Tissue Culture Unit, Cairo, Egypt, with ATCC certification.
(§3) Cells were cultured in DMEM (Invitrogen/Life Technologies) supplemented with 10% FBS (Hyclone), […] (Sigma), and 1% penicillin-streptomycin. Cells were seeded at a density of 1.2–1.8 × 10,000 cells per well in 96-well plates with 100 µL of complete growth medium […]. After 24 hours of incubation, 100 µL of serially diluted sterile test compounds were added to achieve final concentrations ranging from 0.01 to 100 µM, with growth media serving as the negative control. Following another 24-hour incubation, supernatants were removed, and cells were prepared for MTT testing.
(§4) Each experiment included a blank control with complete media but no cells. […] Reconstituted MTT was added to the culture medium at 10% of its volume, and cultures were incubated for 2 to 4 hours, depending on cell type and density.
(§5) Absorbance was measured spectrophotometrically at 570 nm, with background absorbance at 690 nm subtracted. Data from all experiments were recorded, and cell viability percentages were calculated.

[3] = system: PC3 cancer cell line; assay: MTT cell viability assay, PC3; type: cell-based; conditions: Homo sapiens, read-out: IC50 PC3
Experimental: as §1, §2, §3, §4, §5

[4] = system: normal CCD-986sk cell line; assay: MTT cell viability assay, normal CCD-986sk; type: cell-based; conditions: Homo sapiens, read-out: IC50 CCD-986sk
Experimental: as §1, §2, §3, §4, §5

[5] = system: HT-29 cancer cell line; assay: MTT cell viability assay, HT-29; type: cell-based; conditions: Homo sapiens, HT-29 colon cancer cells
Experimental: as §1, §2, §3, §4, §5

[6] = system: PC3 cells; assay: Cell cycle analysis by flow cytometry (PI); type: cell-based, human; conditions: Pyr at IC50 (8.63 μg/mL), 24 hours
Experimental: For further details, See Supplementary Appendix A in the supplementary data.
After treatment, the cells were washed twice with ice-cold phosphate-buffered saline (PBS, pH 7.4, Sigma-Aldrich, Inc.), collected by centrifugation, and fixed in 66% ice-cold ethanol. The cells were subsequently washed with PBS, resuspended in a solution containing 0.1 mg/mL RNase for 30 minutes, stained with 50 µg/mL propidium iodide (PI), and analyzed using the FACSCalibur flow cytometry system (Becton Dickinson, Franklin Lakes, NJ, USA). Cell cycle distributions were determined with CellQuest software (Becton Dickinson).

[7] = system: PC3 cells; assay: Annexin V-FITC/PI apoptosis assay; type: cell-based, human; conditions: Pyr at IC50 (8.63 μg/mL), 48 hours
Excerpt: To detect apoptosis in PC3 cancer cells, the Annexin V FITC assay protocol was employed as described in the literature ([Ali et al., 2024]). For further details, See Supplementary Appendix A in the supplementary data.
The Annexin V-FITC Apoptosis Detection Kit (Catalog #: K101-25, Bio Vision Research Products, Mountain View, CA, USA) operates on the principle that during the early stages of apoptosis, phosphatidylserine (PS) translocates from the inner leaflet of the plasma membrane to the extracellular surface. This relocation allows PS to be detected by Annexin V, a protein with high affinity for PS, when conjugated with a fluorescent compound. The staining process is quick, taking only 10 minutes, and apoptosis detection is performed using flow cytometry. The kit differentiates between apoptotic and necrotic cells based on Annexin V-FITC and propidium iodide (PI) labeling. Early apoptotic cells are Annexin V-positive and PI-negative, while late apoptotic cells are both Annexin V-positive and PI-positive.
For the experiment, cells (5 × 10⁵) were cultured in triplicate in Dulbecco’s Modified Eagle Medium (DMEM) at 37 °C in a 5% CO₂ atmosphere for 24 hours to allow for attachment. […] Following incubation, cells were harvested, washed with cold PBS, and resuspended in binding buffer. Annexin V and PI were added, and the cells were incubated at 4 °C in the dark for 30 minutes for staining. Flow cytometric analysis was performed using the FACS Calibur system (Becton Dickinson, Franklin Lakes, NJ, USA) on a minimum of 10⁴ cells. Dot plots were generated, and the total fraction of apoptotic cells was quantified as described.

[8] = system: p53; assay: p53 protein expression level in PC3 cells; type: cell-based, human; conditions: DMSO control 151.33 ± 3.33
[9] = system: Bax; assay: Bax protein expression level in PC3 cells; type: cell-based, human; conditions: DMSO control 81.49 ± 3.16
[10] = system: Bcl-2; assay: Bcl-2 protein expression level in PC3 cells; type: cell-based, human; conditions: DMSO control 21.68 ± 0.7
[11] = system: caspase-3; assay: Caspase-3 activity in PC3 cells; type: cell-based, human; conditions: DMSO control 67.02 ± 2.6
Excerpt: (§6) This notable increase underscores the activation of downstream apoptotic processes, as caspase-3 is a key effector protease responsible for the cleavage of vital cellular substrates during apoptosis. […] The activation of caspase-9 indicates the involvement of the intrinsic (mitochondrial) pathway, consistent with the observed modulation of upstream regulators, including p53, Bax, and Bcl-2.

[12] = system: caspase-9; assay: Caspase-9 activity in PC3 cells; type: cell-based, human; conditions: DMSO control 4.66 ± 0.41
Excerpt: as §6

Structure (SMILES): NS(=O)(=O)c1ccc(NC(=O)Nc2oc3ccccc3c2Br)cc1 [compound 1]
- Ki [1]: 7.1 nM

Structure (SMILES): NS(=O)(=O)c1ccc(NC(=O)Nc2ccc(F)cc2)cc1 [SLC-0111, reference compound]
- IC50 ([2]; MCF7, read-out: IC50 MCF7): 18.1 µg/mL (≈ 58.7 µM)
- IC50 [3]: 8.71 µg/mL (≈ 28.2 µM)
- IC50 ([4]; CCD-986Sk): 45.7 µg/mL (≈ 148 µM)

Structure (SMILES): NS(=O)(=O)c1ccc(NC(=O)Nc2ccncc2)cc1 [Pyr, 4-(3-(pyridin-4-yl)ureido)benzenesulfonamide]
- IC50 [5]: 27.7 µg/mL (≈ 94.9 µM)
- IC50 ([2]; MTT, MCF7 breast cancer cells, read-out: IC50 MCF7): 11.2 µg/mL (≈ 38.3 µM)
- IC50 ([3]; MTT, PC3 prostate cancer cells): 8.36 µg/mL (≈ 28.6 µM)
- IC50 ([4]; MTT, normal CCD-986sk cells): 50.3 µg/mL (≈ 172 µM)
- DNA content % G2/M ([6]; DMSO control 17.50): 7.18%
- DNA content % S ([6]; DMSO control 28.66): 16.23%
- DNA content % G0-G1 ([6]; DMSO control 53.84): 76.59%
- Apoptosis Late ([7]; DMSO control 0.15): 15.74%
- Apoptosis Early ([7]; DMSO control 0.42): 9.33%
- Necrosis ([7]; DMSO control 1.82): 4.39%
- P53 Conc [8]: 1461.33 ± 10.00 pg/mL
- Bax Conc [9]: 477.27 ± 18.54 pg/mL
- Bcl-2 Conc [10]: 8.88 ± 0.3 pg/mL
- Caspase 3 Conc [11]: 573.19 ± 22.27 pg/mL
- Caspase-9 Conc [12]: 41.82 ± 0.95 ng/mL
